The source made the active and inactive calls.
Tests used:
Enterococcus faecium [1] = experiment: Antibiofilm activity against vancomycin-resistant Enterococcus faecium ATCC 700221 in TSB broth assessed as dispersal of glucose-induced biofilm preincubated with glucose for 48 hrs followed by compound addition and measured after 24 hrs by crystal violet staining based analysis; format: functional
Staphylococcus aureus [2] = experiment: Antibacterial activity against Staphylococcus aureus ATCC 25923 assessed as reduction in visible bacterial growth incubated for 18 to 20 hrs by CLSI based broth microdilution analysis; format: functional; details: time 18-20 hrs
Listeria monocytogenes = experiment: Antibacterial activity against Listeria monocytogenes ATCC 19115 assessed as reduction in visible bacterial growth incubated for 18 to 20 hrs by CLSI based broth microdilution analysis; format: functional; details: time 18-20 hrs
Enterococcus faecalis [3] = experiment: Antibacterial activity against vancomycin-resistant Enterococcus faecalis ATCC 51575 assessed as reduction in visible bacterial growth incubated for 18 to 20 hrs by CLSI based broth microdilution analysis; format: functional; details: time 18-20 hrs
Staphylococcus aureus [4] = experiment: Antibacterial activity against methicillin-resistant Staphylococcus aureus USA 300 assessed as reduction in visible bacterial growth incubated for 18 to 20 hrs by CLSI based broth microdilution analysis; format: functional; details: time 18-20 hrs
Staphylococcus aureus [5] = experiment: Antibacterial activity against methicillin-resistant Staphylococcus aureus USA 300 (ARLG 1568) assessed as reduction in visible bacterial growth incubated for 18 to 20 hrs by CLSI based broth microdilution analysis; format: functional; details: time 18-20 hrs
Staphylococcus aureus [6] = experiment: Antibacterial activity against methicillin-resistant Staphylococcus aureus USA 300 (ARLG 1569) assessed as reduction in visible bacterial growth incubated for 18 to 20 hrs by CLSI based broth microdilution analysis; format: functional; details: time 18-20 hrs
Staphylococcus aureus [7] = experiment: Antibacterial activity against methicillin-resistant Staphylococcus aureus USA 300 (ARLG 1649) assessed as reduction in visible bacterial growth incubated for 18 to 20 hrs by CLSI based broth microdilution analysis; format: functional; details: time 18-20 hrs
Staphylococcus aureus [8] = experiment: Antibacterial activity against methicillin-resistant Staphylococcus aureus USA 300 (ARLG 1663) assessed as reduction in visible bacterial growth incubated for 18 to 20 hrs by CLSI based broth microdilution analysis; format: functional; details: time 18-20 hrs
Staphylococcus aureus [9] = experiment: Bactericidal activity against persister methicillin-resistant Staphylococcus aureus USA 300 at 1 times MIC incubated for 2 to 8 hrs by time kill assay; format: functional, organism-based; details: time 2-8 hrs
Staphylococcus aureus [10] = experiment: Bactericidal activity against persister methicillin-resistant Staphylococcus aureus USA 300 at 1 times MIC incubated for 4 hrs by time kill assay; format: functional
Staphylococcus aureus [11] = experiment: Inhibition of biofilm formation in methicillin-resistant Staphylococcus aureus USA 300 in TSB broth at 0.0078 to 4 ug/ml incubated for 48 hrs in presence of glucose by crystal violet staining based analysis; format: functional, organism-based; details: dose 0.0078-4 µg/ml
Enterococcus faecalis [12] = experiment: Inhibition of biofilm formation in vancomycin-resistant Enterococcus faecalis ATCC 51575 in TSB broth at 0.0078 to 4 ug/ml incubated for 48 hrs in presence of glucose by crystal violet staining based analysis; format: functional, organism-based; details: dose 0.0078-4 µg/ml
Staphylococcus aureus [13] = experiment: Antibiofilm activity against methicillin-resistant Staphylococcus aureus ATCC 33592 in TSB broth assessed as dispersal of glucose-induced biofilm at 8 to 16 ug/ml preincubated with glucose for 48 hrs followed by compound addition and measured after 24 hrs by crystal violet staining based analysis; format: functional; details: dose 8-16 µg/ml, at 8 to 16 µg/mL
Enterococcus faecium [14] = experiment: Antibiofilm activity against vancomycin-resistant Enterococcus faecium ATCC 700221 in TSB broth assessed as dispersal of glucose-induced biofilm at 8 to 16 ug/ml preincubated with glucose for 48 hrs followed by compound addition and measured after 24 hrs by crystal violet staining based analysis; format: functional; details: dose 8-16 µg/ml, at 8 to 16 µg/mL
Enterococcus faecalis [15] = experiment: Antibiofilm activity against vancomycin-resistant Enterococcus faecalis ATCC 51575 in TSB broth assessed as dispersal of glucose-induced biofilm at 8 to 16 ug/ml preincubated with glucose for 48 hrs followed by compound addition and measured after 24 hrs by crystal violet staining based analysis; format: functional; details: dose 8-16 µg/ml, at 8 to 16 µg/mL
Staphylococcus aureus [16] = experiment: Synergistic antibiofilm activity against methicillin-resistant Staphylococcus aureus USA 300 in TSB broth assessed as dispersal of glucose-induced biofilm by measuring Nitroxoline MBEC preincubated with glucose for 48 hrs followed by compound addition and measured after 24 hrs by crystal violet staining based checkerboard assay; format: functional
Staphylococcus aureus [17] = experiment: Synergistic antibiofilm activity against methicillin-resistant Staphylococcus aureus USA 300 in TSB broth assessed as dispersal of glucose-induced biofilm by measuring fractional inhibitory concentration index preincubated with glucose for 48 hrs followed by compound addition and further incubated for 24 hrs in presence of Bithionol by crystal violet staining based checkerboard assay; format: functional
Enterococcus faecalis [18] = experiment: Antibiofilm activity against vancomycin-resistant Enterococcus faecalis ATCC 51575 in TSB broth assessed as dispersal of glucose-induced biofilm preincubated with glucose for 48 hrs followed by compound addition and measured after 24 hrs by crystal violet staining based analysis; format: functional
Enterococcus faecalis [19] = experiment: Synergistic antibiofilm activity against vancomycin-resistant Enterococcus faecalis ATCC 51575 in TSB broth assessed as dispersal of glucose-induced biofilm by measuring Nitroxoline MBEC preincubated with glucose for 48 hrs followed by compound addition and measured after 24 hrs by crystal violet staining based checkerboard assay; format: functional
Enterococcus faecalis [20] = experiment: Synergistic antibiofilm activity against vancomycin-resistant Enterococcus faecalis ATCC 51575 in TSB broth assessed as dispersal of glucose-induced biofilm preincubated with glucose for 48 hrs followed by compound addition and further incubated for 24 hrs in presence of Bithionol by crystal violet staining based checkerboard assay; format: functional
Enterococcus faecium [21] = experiment: Synergistic antibiofilm activity against vancomycin-resistant Enterococcus faecium ATCC 700221 in TSB broth assessed as dispersal of glucose-induced biofilm […] preincubated with glucose for 48 hrs followed by compound addition and measured after 24 hrs by crystal violet staining based checkerboard assay; format: functional
Enterococcus faecium [22] = experiment: Synergistic antibiofilm activity against vancomycin-resistant Enterococcus faecium ATCC 700221 in TSB broth assessed as dispersal of glucose-induced biofilm preincubated with glucose for 48 hrs followed by compound addition and further incubated for 24 hrs in presence of Bithionol by crystal violet staining based checkerboard assay; format: functional
Staphylococcus aureus [23] = experiment: Synergistic antibiofilm activity against methicillin-resistant Staphylococcus aureus USA 300 in TSB broth assessed as dispersal of glucose-induced biofilm with distribution of ruptured bacteria components and debris at 4 ug/ml preincubated with glucose for 48 hrs followed by compound addition and further incubated for 24 hrs in presence of Bithionol by SEM analysis; format: functional, organism-based; details: dose 4.0 µg/ml
Staphylococcus aureus [24] = experiment: Synergistic antibiofilm activity against methicillin-resistant Staphylococcus aureus USA 300 in TSB broth assessed as dispersal of glucose-induced biofilm at 1 ug/ml preincubated with glucose for 48 hrs followed by compound addition and further incubated for 24 hrs in presence of Nitroxoline by SEM analysis; format: functional, organism-based; details: dose 1.0 µg/ml
Staphylococcus aureus [25] = experiment: Inhibition of cell wall synthesis in Staphylococcus aureus ATCC 25923 at 0.25 to 8 ug/ml by [glucosamine-6-3H]-N-acetyl-D-glucosamine incorporation assay; format: functional, organism-based; details: dose 0.25-8 µg/ml
Staphylococcus aureus [26] = experiment: Inhibition of protein synthesis in Staphylococcus aureus ATCC 25923 at 0.25 to 8 ug/ml by [3H]-I-leucine incorporation assay; format: functional; details: dose 0.25-8 µg/ml
Staphylococcus aureus [27] = experiment: Inhibition of DNA synthesis in Staphylococcus aureus ATCC 25923 at 0.25 to 8 ug/ml by [methyl]-thymidine incorporation assay; format: functional, organism-based; details: dose 0.25-8 µg/ml

Oc1ccc([C@@H]2Nc3ccc(S(F)(F)(F)(F)F)cc3[C@H]3[C@@H]4CC[C@@H](C4)[C@H]32)cc1
2 µg/mL: MBC (Staphylococcus aureus [2]) | MIC (Staphylococcus aureus [2]) | MBC (Enterococcus faecalis [3]) | MIC (Enterococcus faecalis [3]) | MBC (Staphylococcus aureus [4]) | MBC (Staphylococcus aureus [5]) | MIC (Staphylococcus aureus [5]) | MBC (Staphylococcus aureus [6]) | MBC (Staphylococcus aureus [7]) | MBC (Staphylococcus aureus [8]) | MBEC (Enterococcus faecalis [19]) | MBEC (Enterococcus faecalis [20]) | MBEC (Enterococcus faecium [21])
0.5 µg/mL: MIC (Staphylococcus aureus [8])
32 µg/mL: MBEC (Enterococcus faecium [1])
1 µg/mL: MIC (Listeria monocytogenes) | MIC (Staphylococcus aureus [4]) | MIC (Staphylococcus aureus [6]) | MIC (Staphylococcus aureus [7]) | MBEC (Enterococcus faecium [22])
70%: Activity (Staphylococcus aureus [13]) | Activity (Enterococcus faecium [14]) | Activity (Enterococcus faecalis [15])
16 µg/mL: MBEC (Enterococcus faecalis [18])
100%: Activity (Staphylococcus aureus [10])
0.25: fractional inhibitory concentration index (FICI) (Staphylococcus aureus [17])
4 µg/mL: MBEC (Staphylococcus aureus [16])
active: Activity (Staphylococcus aureus [9]) | inhibition (Staphylococcus aureus [11]) | inhibition (Enterococcus faecalis [12]) | Activity (Staphylococcus aureus [23]) | Activity (Staphylococcus aureus [24]) | inhibition (Staphylococcus aureus [25]) | inhibition (Staphylococcus aureus [26]) | inhibition (Staphylococcus aureus [27])

Reference: ChEMBL document CHEMBL5113477, “Membrane acting Povarov-Doebner derived compounds potently disperse preformed multidrug resistant Gram-positive bacterial biofilms” (Eur J Med Chem, 2022)
